Data reported in ChEMBL document CHEMBL4376834, “Discovery of 4H-Chromen-4-one Derivatives as a New Class of Selective Rho Kinase (ROCK) Inhibitors, which Showed Potent Activity in ex Vivo Diabetic Retinopathy Models” (J Med Chem, 2019).

How the values were obtained:
[1] = target: Tyrosine-protein kinase FRK (Homo sapiens, UniProt P42685); assay: Inhibition of recombinant human PTK5 (218 to end residues) using GGEEEEYFELVKK as substrate incubated for 40 mins in presence of [gamma33P]ATP by radiometric scintillation counting analysis
[2] = target: Protein-tyrosine kinase 6 (Homo sapiens, UniProt Q13882); assay: Inhibition of recombinant full length human BRK using poly(Glu, Tyr) 4:1 as substrate incubated for 40 mins in presence of [gamma-33ATP] by radiometric scintillation counting analysis
[3] = target: Calcium/calmodulin-dependent protein kinase type 1D (Homo sapiens, UniProt Q8IU85); assay: Inhibition of recombinant full length human CaMK1delta using calmodulin as substrate incubated for 40 mins in presence of [gamma-33ATP] by radiometric scintillation counting analysis
[4] = target: Epidermal growth factor receptor (Homo sapiens, UniProt P00533, L861Q); assay: Inhibition of recombinant human EGFR L861Q mutant (696 to end residues) using poly(Glu, Tyr) 4:1 as substrate after 40 mins in presence of [gamma-33ATP] by radiometric scintillation counting analysis
[5] = target: Homeodomain-interacting protein kinase 1 (Homo sapiens, UniProt Q86Z02); assay: Inhibition of human recombinant HIPK1 (158 to 555 residues) using myelin basic protein as substrate after 40 mins by [gamma-33ATP] radiometric assay
[6] = Inhibition of recombinant full length human PRAK R291E mutant using KKLRRTLSVA as substrate incubated for 40 mins in presence of [gamma33P]ATP by radiometric scintillation counting analysis
[7] = target: Tyrosine-protein kinase BTK (Homo sapiens, UniProt Q06187, R28H); assay: Inhibition of recombinant full length human BTK R28H mutant using KVEKIGEGTYGVV substrate incubated for 40 mins in presence of [gamma-33ATP] by radiometric scintillation counting analysis
[8] = target: Tyrosine-protein kinase ABL2 (Homo sapiens, UniProt P42684); assay: Inhibition of human recombinant ARG (48 to end residues) using EAIYAAPFAKKK as substrate incubated for 40 mins in presence of [gamma-33ATP] by radiometric scintillation counting analysis
[9] = target: Mitogen-activated protein kinase kinase kinase 9 (Homo sapiens, UniProt P80192); assay: Inhibition of recombinant human MLK1 (134 to 414 residues) using casein as substrate incubated for 40 mins in presence of [gamma-33ATP by radiometric scintillation counting analysis
[10] = target: PI3-kinase p110-alpha/p85-alpha (Homo sapiens, UniProt P42336, H1047R); assay: Inhibition of recombinant human full length PI3K p110alpha/p85alpha H1047R mutant using phosphatidylinositol 4,5-bisphosphate as substrate incubated for 40 mins in presence of [gamma33P]ATP by radiometric scintillation counting analysis
[11] = target: Serine/threonine-protein kinase TAO2 (Homo sapiens, UniProt Q9UL54); assay: Inhibition of recombinant human TAO2 (1 to 320 residues) using myelin basic protein as substrate incubated for 40 mins in presence of [gamma33P]ATP by radiometric scintillation counting analysis
[12] = target: Tyrosine-protein kinase CSK (Homo sapiens, UniProt P41240); assay: Inhibition of recombinant full length human CSK using poly(Glu, Tyr) 4:1 as substrate incubated 40 mins in presence of [gamma-33ATP] by radiometric scintillation counting analysis
[13] = target: Bone morphogenetic protein receptor type-2 (Homo sapiens, UniProt Q13873); assay: Inhibition of human recombinant BMPR2 (172 to 734 residues) using myelin basic protein as substrate incubated for 120 mins in presence of [gamma-33ATP] by radiometric scintillation counting analysis
[14] = target: Hepatocyte growth factor receptor (Homo sapiens, UniProt P08581, Y1230H); assay: Inhibition of recombinant human MET A1209G/V1290L/Y1248H triple mutant (974 to end residues) using KKKGQEEEYVFIE as substrate incubated for 40 mins in presence of [gamma-33ATP by radiometric scintillation counting analysis
[15] = Inhibition of recombinant human FLT4 V1128L/H1146R double mutant (800 to end residues) using GGEEEEYFELVKK as substrate after 40 mins in presence of [gamma-33ATP] by radiometric scintillation counting analysis
[16] = target: Serine/threonine-protein kinase 16 (Homo sapiens, UniProt O75716); assay: Inhibition of human STK16 in presence of 10 uM ATP by radiometric analysis
[17] = target: Activated CDC42 kinase 1 (Homo sapiens, UniProt Q07912); assay: Inhibition of human recombinant ACK1 (1 to 389 residues) using EFPIYDFLPAKKK as substrate incubated for 40 mins in presence of [gamma-33P]ATP by radiometric scintillation counting analysis
[18] = target: Ephrin type-B receptor 1 (Homo sapiens, UniProt P54762); assay: Inhibition of recombinant human EphB1 (564 to end residues) using […] as substrate after 40 mins in presence of [gamma-33ATP] by radiometric scintillation counting analysis
[19] = target: Serine/threonine-protein kinase 32A (Homo sapiens, UniProt Q8WU08); assay: Inhibition of recombinant human full length STK32A using casein as substrate incubated for 40 mins in presence of [gamma33P]ATP by radiometric scintillation counting analysis
[20] = target: Protein-tyrosine kinase 2-beta (Homo sapiens, UniProt Q14289); assay: Inhibition of recombinant human full length PYK2 using poly(Glu, Tyr) 4:1 as substrate incubated for 40 mins in presence of [gamma33P]ATP by radiometric scintillation counting analysis
[21] = Inhibition of human MAPK2
[22] = target: Tyrosine-protein kinase ZAP-70 (Homo sapiens, UniProt P43403); assay: Inhibition of recombinant full length human ZAP70 using poly(Glu, Tyr) 4:1 as substrate incubated for 40 mins in presence of [gamma33P]ATP by radiometric scintillation counting analysis
[23] = target: Dual specificity protein kinase CLK2 (Homo sapiens, UniProt P49760); assay: Inhibition of recombinant human CLK2 (138 to end residues) using YRRAAVPPSPSLSR as substrate incubated 40 mins in presence of [gamma-33ATP] by radiometric scintillation counting analysis
[24] = target: Platelet-derived growth factor receptor beta (Homo sapiens, UniProt P09619); assay: Inhibition of human PDGFRbeta (557 to end residues) using poly(Glu, Tyr) 4:1 as substrate measured after 40 mins in presence of [gamma33P]ATP by radiometric scintillation counting analysis
[25] = target: Serine/threonine-protein kinase TBK1 (Homo sapiens, UniProt Q9UHD2); assay: Inhibition of recombinant full length human TBK1 using KRRRALS(p)VAS as substrate incubated for 40 mins in presence of [gamma33P]ATP by radiometric scintillation counting analysis
[26] = target: Myosin-IIIb (Homo sapiens, UniProt Q8WXR4); assay: Inhibition of recombinant human MYO3B (1 to 326 residues) using RLGRDKYKTLRQI as substrate measured after 40 mins in presence of [gamma33P]ATP by radiometric scintillation counting analysis

Measured: IC50

Homeodomain-interacting protein kinase 1, sequence (Q86Z02 whole entry, the tested form may be a part): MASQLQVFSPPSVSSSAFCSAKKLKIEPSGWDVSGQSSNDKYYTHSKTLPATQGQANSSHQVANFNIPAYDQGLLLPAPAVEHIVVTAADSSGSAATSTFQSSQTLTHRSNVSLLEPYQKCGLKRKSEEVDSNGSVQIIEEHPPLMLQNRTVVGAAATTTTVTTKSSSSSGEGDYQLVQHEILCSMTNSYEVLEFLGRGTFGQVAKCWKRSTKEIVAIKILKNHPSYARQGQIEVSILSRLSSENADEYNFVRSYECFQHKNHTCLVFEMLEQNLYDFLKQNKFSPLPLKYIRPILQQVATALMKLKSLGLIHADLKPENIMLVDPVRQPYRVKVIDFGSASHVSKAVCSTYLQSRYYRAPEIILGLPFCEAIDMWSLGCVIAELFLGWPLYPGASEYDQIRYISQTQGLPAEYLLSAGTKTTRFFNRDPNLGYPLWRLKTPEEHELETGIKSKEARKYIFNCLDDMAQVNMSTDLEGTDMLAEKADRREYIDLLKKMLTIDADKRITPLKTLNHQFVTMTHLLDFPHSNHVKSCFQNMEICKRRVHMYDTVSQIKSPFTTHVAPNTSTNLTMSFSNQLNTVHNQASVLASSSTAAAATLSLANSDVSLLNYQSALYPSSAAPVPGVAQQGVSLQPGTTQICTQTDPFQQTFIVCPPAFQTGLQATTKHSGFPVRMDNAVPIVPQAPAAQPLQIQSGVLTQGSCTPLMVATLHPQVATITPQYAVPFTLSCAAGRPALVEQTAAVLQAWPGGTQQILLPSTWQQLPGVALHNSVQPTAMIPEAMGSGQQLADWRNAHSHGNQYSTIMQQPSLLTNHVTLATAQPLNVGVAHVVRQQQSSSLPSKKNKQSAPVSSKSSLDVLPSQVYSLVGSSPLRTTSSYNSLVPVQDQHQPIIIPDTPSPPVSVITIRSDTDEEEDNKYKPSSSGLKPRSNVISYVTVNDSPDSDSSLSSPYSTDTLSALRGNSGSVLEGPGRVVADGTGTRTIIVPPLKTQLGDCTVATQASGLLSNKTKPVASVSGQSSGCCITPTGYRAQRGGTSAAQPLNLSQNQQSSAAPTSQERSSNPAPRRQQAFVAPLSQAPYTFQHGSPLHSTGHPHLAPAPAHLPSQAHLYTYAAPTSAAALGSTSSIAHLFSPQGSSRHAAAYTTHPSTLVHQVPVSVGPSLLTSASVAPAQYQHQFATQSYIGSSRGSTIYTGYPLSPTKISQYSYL
Tyrosine-protein kinase ABL2, sequence (P42684 whole entry, the tested form may be a part): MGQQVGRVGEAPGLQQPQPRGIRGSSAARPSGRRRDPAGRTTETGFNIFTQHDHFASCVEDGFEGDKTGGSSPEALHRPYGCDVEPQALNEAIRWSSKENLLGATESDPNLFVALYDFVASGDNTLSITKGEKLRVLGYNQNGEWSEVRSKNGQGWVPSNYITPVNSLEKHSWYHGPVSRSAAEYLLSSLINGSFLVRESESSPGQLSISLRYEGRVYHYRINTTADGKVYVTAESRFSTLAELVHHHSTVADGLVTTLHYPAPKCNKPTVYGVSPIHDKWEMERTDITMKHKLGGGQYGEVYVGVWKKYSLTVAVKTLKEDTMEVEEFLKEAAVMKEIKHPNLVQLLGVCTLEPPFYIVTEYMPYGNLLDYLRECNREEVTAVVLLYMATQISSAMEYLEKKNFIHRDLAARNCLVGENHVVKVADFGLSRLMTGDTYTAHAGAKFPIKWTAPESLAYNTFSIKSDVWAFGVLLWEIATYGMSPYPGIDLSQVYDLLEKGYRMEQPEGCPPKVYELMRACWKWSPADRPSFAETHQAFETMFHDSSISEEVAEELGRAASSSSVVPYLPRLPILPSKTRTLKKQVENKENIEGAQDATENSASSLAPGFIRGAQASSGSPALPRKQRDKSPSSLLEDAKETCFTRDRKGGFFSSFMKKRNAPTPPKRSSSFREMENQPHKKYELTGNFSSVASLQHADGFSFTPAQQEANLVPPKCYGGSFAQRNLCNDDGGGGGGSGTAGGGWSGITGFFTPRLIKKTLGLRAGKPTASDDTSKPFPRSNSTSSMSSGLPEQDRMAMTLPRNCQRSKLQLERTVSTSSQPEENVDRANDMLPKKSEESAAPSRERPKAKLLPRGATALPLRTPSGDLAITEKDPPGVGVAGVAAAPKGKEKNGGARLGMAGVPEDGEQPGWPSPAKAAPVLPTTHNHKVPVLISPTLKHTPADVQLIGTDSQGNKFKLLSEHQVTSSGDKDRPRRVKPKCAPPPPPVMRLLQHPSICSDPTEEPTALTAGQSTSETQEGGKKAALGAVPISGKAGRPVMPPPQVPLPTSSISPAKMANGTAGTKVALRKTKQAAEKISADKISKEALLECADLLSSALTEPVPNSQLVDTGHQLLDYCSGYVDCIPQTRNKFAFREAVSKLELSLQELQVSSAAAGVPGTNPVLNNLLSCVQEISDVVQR
Bone morphogenetic protein receptor type-2, sequence (Q13873 whole entry, the tested form may be a part): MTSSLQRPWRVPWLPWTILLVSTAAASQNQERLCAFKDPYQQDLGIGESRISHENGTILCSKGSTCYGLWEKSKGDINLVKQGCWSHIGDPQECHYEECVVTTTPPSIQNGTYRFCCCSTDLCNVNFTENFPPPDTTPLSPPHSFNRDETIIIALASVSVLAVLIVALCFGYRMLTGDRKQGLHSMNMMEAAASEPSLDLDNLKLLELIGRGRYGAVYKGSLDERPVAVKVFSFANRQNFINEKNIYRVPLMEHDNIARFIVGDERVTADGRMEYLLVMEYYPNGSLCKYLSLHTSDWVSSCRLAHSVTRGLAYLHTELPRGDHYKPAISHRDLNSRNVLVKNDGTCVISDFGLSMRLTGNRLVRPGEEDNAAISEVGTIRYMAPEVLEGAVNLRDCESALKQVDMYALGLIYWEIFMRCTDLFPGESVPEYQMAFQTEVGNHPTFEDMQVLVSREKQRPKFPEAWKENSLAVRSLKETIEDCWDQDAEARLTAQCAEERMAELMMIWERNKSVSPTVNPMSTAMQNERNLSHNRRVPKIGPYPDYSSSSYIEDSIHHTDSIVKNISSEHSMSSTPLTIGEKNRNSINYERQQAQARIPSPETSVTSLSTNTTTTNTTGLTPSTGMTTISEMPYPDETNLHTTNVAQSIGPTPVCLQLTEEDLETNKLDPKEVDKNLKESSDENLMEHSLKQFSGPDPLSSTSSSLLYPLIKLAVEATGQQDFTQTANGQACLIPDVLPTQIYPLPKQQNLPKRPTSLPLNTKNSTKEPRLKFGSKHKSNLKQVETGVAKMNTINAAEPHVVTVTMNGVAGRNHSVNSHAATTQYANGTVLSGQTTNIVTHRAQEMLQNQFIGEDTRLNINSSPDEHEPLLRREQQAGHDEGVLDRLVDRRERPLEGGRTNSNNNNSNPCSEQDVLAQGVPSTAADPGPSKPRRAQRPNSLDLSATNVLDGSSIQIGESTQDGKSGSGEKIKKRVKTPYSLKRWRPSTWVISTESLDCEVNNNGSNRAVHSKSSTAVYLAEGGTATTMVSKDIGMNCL
Epidermal growth factor receptor, sequence (P00533 25-1210 L861Q limits assumed): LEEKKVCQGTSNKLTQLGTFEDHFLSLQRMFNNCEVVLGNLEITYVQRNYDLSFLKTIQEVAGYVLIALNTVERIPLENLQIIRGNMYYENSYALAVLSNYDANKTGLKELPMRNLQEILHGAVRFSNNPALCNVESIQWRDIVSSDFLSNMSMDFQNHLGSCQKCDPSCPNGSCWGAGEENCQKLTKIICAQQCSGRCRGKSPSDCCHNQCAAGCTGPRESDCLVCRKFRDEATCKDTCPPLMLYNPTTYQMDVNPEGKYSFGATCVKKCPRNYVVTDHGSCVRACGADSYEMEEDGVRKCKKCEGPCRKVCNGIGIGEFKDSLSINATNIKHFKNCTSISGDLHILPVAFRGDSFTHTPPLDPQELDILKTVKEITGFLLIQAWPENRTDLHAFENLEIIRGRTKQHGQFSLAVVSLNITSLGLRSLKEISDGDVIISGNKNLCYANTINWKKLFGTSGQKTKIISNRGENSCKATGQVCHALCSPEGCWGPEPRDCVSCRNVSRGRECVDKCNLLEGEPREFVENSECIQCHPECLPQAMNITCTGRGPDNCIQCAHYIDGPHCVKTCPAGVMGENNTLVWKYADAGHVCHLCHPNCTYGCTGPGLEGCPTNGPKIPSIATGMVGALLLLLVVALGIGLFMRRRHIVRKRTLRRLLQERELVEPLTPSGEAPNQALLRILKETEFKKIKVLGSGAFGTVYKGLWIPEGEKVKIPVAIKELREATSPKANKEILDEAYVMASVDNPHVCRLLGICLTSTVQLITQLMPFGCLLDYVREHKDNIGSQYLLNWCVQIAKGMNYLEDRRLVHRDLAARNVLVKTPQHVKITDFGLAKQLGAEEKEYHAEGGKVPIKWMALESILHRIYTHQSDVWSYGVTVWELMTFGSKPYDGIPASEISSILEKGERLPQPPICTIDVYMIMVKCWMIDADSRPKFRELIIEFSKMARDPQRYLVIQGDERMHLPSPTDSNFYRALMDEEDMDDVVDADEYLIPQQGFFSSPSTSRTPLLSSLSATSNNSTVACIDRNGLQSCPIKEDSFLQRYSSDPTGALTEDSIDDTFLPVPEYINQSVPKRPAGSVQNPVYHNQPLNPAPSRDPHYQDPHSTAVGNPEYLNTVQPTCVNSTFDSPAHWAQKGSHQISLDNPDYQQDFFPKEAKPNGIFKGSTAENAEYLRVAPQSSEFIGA
Protein-tyrosine kinase 6, sequence (Q13882 whole entry): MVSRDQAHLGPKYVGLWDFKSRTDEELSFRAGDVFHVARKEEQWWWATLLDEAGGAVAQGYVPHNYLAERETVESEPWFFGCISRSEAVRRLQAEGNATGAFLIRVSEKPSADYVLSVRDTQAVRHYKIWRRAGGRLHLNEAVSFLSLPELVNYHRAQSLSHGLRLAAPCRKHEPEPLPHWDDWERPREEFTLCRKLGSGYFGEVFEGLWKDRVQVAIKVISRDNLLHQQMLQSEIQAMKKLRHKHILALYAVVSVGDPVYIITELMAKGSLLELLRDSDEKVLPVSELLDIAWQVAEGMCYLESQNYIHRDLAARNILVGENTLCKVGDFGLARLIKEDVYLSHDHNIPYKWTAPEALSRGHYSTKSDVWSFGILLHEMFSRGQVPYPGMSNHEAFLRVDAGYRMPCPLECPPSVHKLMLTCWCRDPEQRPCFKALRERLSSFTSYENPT

CN(C)c1ccc(C(=O)Nc2cccc(NC(=O)COc3ccc4c(=O)ccoc4c3)c2)cc1
> 10 µM: all assays above
